The source of these data is ChEMBL document CHEMBL1152014, “Synthesis of thiophenol derivatives as inhibitors of human collagenase” (Bioorg Med Chem Lett, 1995).

SMILES strings stand for the structures.

The target of the experiment is T1, Interstitial collagenase (Homo sapiens, UniProt P03956).
T1 sequence (P03956 whole entry): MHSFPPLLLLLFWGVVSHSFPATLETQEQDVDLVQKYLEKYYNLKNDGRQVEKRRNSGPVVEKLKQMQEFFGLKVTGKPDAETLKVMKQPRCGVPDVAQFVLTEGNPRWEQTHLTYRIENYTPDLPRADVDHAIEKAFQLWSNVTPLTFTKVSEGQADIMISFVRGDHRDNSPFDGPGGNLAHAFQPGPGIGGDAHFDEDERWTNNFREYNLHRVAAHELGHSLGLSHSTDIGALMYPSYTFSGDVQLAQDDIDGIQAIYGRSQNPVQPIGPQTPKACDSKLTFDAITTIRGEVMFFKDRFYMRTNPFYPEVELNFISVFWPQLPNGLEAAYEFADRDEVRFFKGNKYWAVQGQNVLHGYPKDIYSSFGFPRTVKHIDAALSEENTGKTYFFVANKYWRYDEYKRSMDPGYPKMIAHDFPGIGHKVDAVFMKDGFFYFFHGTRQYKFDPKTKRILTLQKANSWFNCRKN
In words: Inhibitory activity was tested against human collagenase (MMP-1).
As a reminder, the IC50 is the concentration needed to halve the response being measured. Higher therefore signals weaker potency. `CNC(=O)[C@H](Cc1ccc(OC)cc1)NC(=O)C(Cc1ccc(OC)cc1S)CC(C)C` (stereo not given in full) showed an IC50 of 140 nM. That is a sub-micromolar value.

Consider `CNC(=O)[C@H](Cc1ccc(OC)cc1)NC(=O)[C@H](Cc1ccccc1S)CC(C)C`, for which the IC50 was 55 nM.

In turn, `CNC(=O)[C@H](Cc1ccc(OC)cc1)NC(=O)[C@@H](Cc1cccc(OC)c1S)CC(C)C` yielded an IC50 of 220 nM.

In turn, `CNC(=O)[C@H](Cc1ccc(OC)cc1)NC(=O)C(Cc1c(S)cccc1Cl)CC(C)C` (stereo not given in full) registered a 50% inhibitory concentration (IC50) of 320 nM. The IC50 values of the last two molecules are within 1.5-fold of each other.

For the molecule `CC(C)CC(Cc1ccccc1S)C(=O)NC1CCCCCCCCCCNC1=O` (stereo not given), the 50% inhibitory concentration (IC50) is more than 100000 nM.

Turning to `CNC(=O)[C@H](Cc1ccc(OC)cc1)NC(=O)[C@H](CC(C)C)[C@H](C)S`, half-maximal inhibition (IC50) was put at 17 nM. This lies in the double-digit nanomolar range.

In turn, `CNC(=O)[C@H](Cc1ccc(OC)cc1)NC(=O)C(Cc1ccc(Cl)cc1S)CC(C)C` (stereo not given in full) showed an IC50 of 230 nM.

The molecule `CNC(=O)[C@H](Cc1ccccc1)NC(=O)[C@H](Cc1ccccc1S)CC(C)C` had an IC50 of 30 nM.

Consider `CNC(=O)[C@H](Cc1ccc(OC)cc1)NC(=O)C(Cc1cccc(C(F)(F)F)c1S)CC(C)C` (stereo not given in full), for which the midpoint of inhibition, the IC50, lay at 290 nM.

For `CNC(=O)[C@H](Cc1ccc(OC)cc1)NC(=O)[C@H](Cc1cccc(OC)c1S)CC(C)C`, the IC50 stood at 160 nM. This IC50 is about 1.8-fold lower than that of the molecule before.

On to `CNC(=O)[C@H](Cc1ccc(OC)cc1)NC(=O)[C@H](CC(C)C)[C@@H](S)c1ccccc1`, for which 270 nM corresponded to half-maximal inhibition (IC50). Compared with the last molecule, the IC50 is about 1.7-fold higher.

Molecule `CNC(=O)[C@H](Cc1ccc(OC)cc1)NC(=O)C(Cc1ccc[nH]c1=S)CC(C)C` (stereo not given in full) yielded an IC50 of more than 100000 nM.

Consider `CNC(=O)[C@H](Cc1ccccc1)NC(=O)[C@@H](Cc1ccccc1S)CC(C)C`, for which the IC50 turned out to be 1100 nM.

In turn, `CNC(=O)[C@H](Cc1ccc(OC)cc1)NC(=O)[C@@H](Cc1ccccc1S)CC(C)C` had an IC50 of 340 nM.

In the case of `CNC(=O)[C@H](Cc1ccc(OC)cc1)NC(=O)C(Cc1cccc(Cl)c1S)CC(C)C` (stereo not given in full), it took 330 nM to reach half-maximal inhibition (IC50).
